# Assay results: article PMC6930659, “Antiprotozoal Activity of Turkish Origanum onites Essential Oil and Its Components” (Molecules, 2019)
# Like-named read-outs stand apart in the source and are kept apart here.
# Tests used:
# [1] = tested on: Trypanosoma brucei rhodesiense STIB 900; assay: In vitro assay for Trypanosoma brucei rhodesiense (resazurin); type: cell-based
# Procedure: Trypanosoma brucei rhodesiense STIB 900 strain, isolated in 1982 from a human patient in Tanzania and, after several mouse passages, cloned and adapted to axenic culture conditions, was used in this assay. Minimum essential medium (50 μL) supplemented with 25 mM HEPES, 1 g/L additional glucose, 1% MEM non-essential amino acids (100×), 0.2 mM 2-mercaptoethanol, 1 mM Na-pyruvate, and 15% heat inactivated horse serum was added to each well of a 96 well microtiter plate. Serial drug dilutions of seven 3-fold dilution steps covering a range from 90 to 0.123 μg/mL were prepared, and then 4 × 10^4 blood stream forms of T. b. rhodesiense STIB 900 in 50 μL were added to each well and the plate was incubated at 37 °C under a 5% CO2 atmosphere for 72 h. Resazurin solution (resazurin, 12.5 mg in 100 mL double-distilled water) (10 μL) was then added to each well and incubated for a further 2–4 h. At the end of the assay, the plates were read with a Spectramax Gemini XS microplate fluorometer (Molecular Devices Cooperation, Sunnyvale, CA, USA) using an excitation wavelength of 536 nm and an emission wavelength of 588 nm. Data were analyzed using the microplate reader software Softmax Pro (Molecular Devices Cooperation, Sunnyvale, CA, USA). Melarsoprol was used as standard drug.
# T. brucei brucei STIB795 = assay: In vivo trypanocidal activity, T. brucei brucei STIB795 mouse model; parameters: species or system Trypanosoma brucei brucei; conditions: 5.0 mg/kg × 4 days i.p., NMRI mice; for Mean Survival: untreated control 5.25 days
# Procedure: In vivo efficacy studies in mice were conducted at the Swiss Tropical and Public Health Institute (Basel) (License number 2813) according to the rules and regulations for the protection of animal rights (“Tierschutzverordnung”) of the Swiss “Bundesamt für Veterinärwesen”. They were approved by the veterinary office of Canton Basel-Stadt, Switzerland. Groups of four female NMRI mice weighing 20 to 25 g were infected i.p. on Day 0 (d0) with 10^5 bloodstream forms of T. brucei brucei STIB 795, which is a derivative of strain 427. Compounds were formulated in 100% DMSO diluted 10-fold in distilled water. Mice were treated on four consecutive days (d3 to d6 post-infection) with the Origanum onites oil, as well as carvacrol and thymol, at 100 mg/kg by the i.p. route. One group served as untreated controls, and two other groups were treated with the standard drugs pentamidine (5 mg/kg for 4 days) and melarsoprol (2 mg/kg for 4 days), respectively. The levels of parasitemia of the mice were checked by microscopic examination of tail blood on Day 7 and thereafter twice a week until Day 30 post infection. Mice were considered cured when there was no parasitaemia relapse detected in the tail blood over the 30 day observation period. The day of relapse and surviving days were recorded.
# [2] = tested on: T. cruzi Tulahuen strain C2C4; assay: In vitro assay for Trypanosoma cruzi in L-6 cells (β-galactosidase/CPRG); type: cell-based; conditions: Trypanosoma cruzi, L6; Tulahuen C2C4 in L-6 cells, 96 h; highest concentration tested 90 μg/mL; means of two determinations ± deviation
# Procedure: Rat skeletal myoblasts (L-6 cells) were seeded in 96 well microtiter plates (2000 cells/well) in 100 μL RPMI 1640 medium with 10% FBS and 2 mM L-glutamine for 24 h. After that, the medium was removed and replaced by 100 μL per well containing 5000 trypomastigote forms of T. cruzi Tulahuen strain C2C4, containing the β-galactosidase (Lac Z) gene. The medium was removed from the wells after 48 h, and replaced with 100 μL fresh medium with or without a serial drug dilution of seven 3-fold dilution steps covering a range from 90 to 0.123 μg/mL. After 96 h of incubation, the plates were inspected under an inverted microscope to assure growth of the controls and sterility, after which the substrate CPRG/Nonidet ([…]) was added to all wells. A color reaction developed within 2–6 h and could be read photometrically at 540 nm. Data were transferred into the graphic program Softmax Pro (Molecular Devices Cooperation, Sunnyvale, CA, USA) and the IC50 values were calculated from the sigmoidal dose response curves. Benznidazole was the reference drug.
# [3] = tested on: L. donovani (strain MHOM/ET/67/L82) amastigotes; assay: In vitro assay for Leishmania donovani axenic amastigotes (resazurin); type: cell-based; conditions: axenic amastigotes, 72 h, means of two determinations ± deviation, read-out: IC50 Leishmania donovani
# Procedure: Amastigotes of L. donovani (strain MHOM/ET/67/L82) were grown in axenic culture at 37 °C in SM medium at pH 5.4 supplemented with 10% heat-inactivated FBS under an atmosphere of 5% CO2. Culture medium (100 μL) with 10^5 amastigotes from axenic culture with or without a serial drug dilution was seeded in 96 well microtiter plates. Serial drug was prepared covering a range of dilutions from 90 to 0.123 μg/mL. After 72 h of incubation, the plates were inspected under an inverted microscope to assure growth of the controls and sterile conditions. Subsequently, 10 μL resazurin solution (12.5 mg resazurin dissolved in 100 mL double-distilled water) was added to each well and the plates were incubated for another 2 h. The plates were then read with a Spectramax Gemini XS microplate fluorometer (Molecular Devices Cooperation, Sunnyvale, CA, USA) using an excitation wavelength of 536 nm and an emission wavelength of 588 nm. Data were analyzed using the software Softmax Pro (Molecular Devices Cooperation, Sunnyvale, CA, USA). A decrease of fluorescence (=inhibition) was expressed as percentage of the fluorescence of control cultures and plotted against the drug concentrations. From the sigmoidal inhibition curves, the IC50 values were calculated. Miltefosine was used as a reference drug.
# P. falciparum K1 strain = assay: In vitro assay for Plasmodium falciparum ([3H]-hypoxanthine incorporation); type: cell-based
# Procedure: Activity against the erythrocytic stages of P. falciparum was determined using an in vitro modified [^3H]-hypoxanthine incorporation assay, using the chloroquine- and pyrimethamine-resistant K1 strain [68]. Compounds were dissolved in DMSO at 10 mg/mL and further diluted in medium before added to parasite cultures incubated in RPMI 1640 medium without hypoxanthine, supplemented with HEPES (5.94 g/l), NaHCO3 (2.1 g/L), neomycin (100 U/mL), AlbumaxR (5 g/L), and washed human red cells A+ at 2.5% haematocrit (0.3% parasitaemia). Serial drug dilutions of seven 3-fold dilution steps covering a range from 90 to 0.123 μg/mL were prepared. The 96 well plates were incubated in a humidified atmosphere at 37 °C; 4% CO2, 3% O2, 93% N2. After 48 h 50 μL of ^3H-hypoxanthine (=0.5 μCi) was added to each well of the plate. The plates were incubated for a further 24 h under the same conditions. The plates were then harvested with a Betaplate™ cell harvester (Wallac, Zurich, Switzerland), and the red blood cells transferred onto a glass fiber filter then washed with distilled water. The dried filters were inserted into a plastic foil with 10 mL of scintillation fluid, and counted in a Betaplate™ liquid scintillation counter (Wallac, Zurich, Switzerland). […] IC50 values were calculated from the sigmoidal inhibition curves using Microsoft Excel. Chloroquine was used as positive control drug.
# [4] = In vitro assay for cytotoxicity on mammalian cells (resazurin); type: cell-based, rat
# Procedure: (§1) Assays were performed in 96 well microtiter plates (4 × 10^4 L6 cells/well), each well containing 100 μL of RPMI 1640 medium supplemented with 1% L-glutamine (200 mM) and 10% FBS. L6 cells are a primary cell line derived from rat skeletal myoblasts. Serial drug dilutions of seven 3-fold dilution steps covering a range from 90 to 0.123 μg/mL were prepared. After 72 h of incubation, the plates were inspected under an inverted microscope to assure growth of the controls and sterile conditions. Resazurin solution (10 μL) (12.5 mg resazurin in 100 mL double-distilled water) was then added to each well and the plates incubated for another 2 h. The plates were then read with a Spectramax Gemini XS microplate fluorometer (Molecular Devices Cooperation, Sunnyvale, CA, USA) using an excitation wavelength of 536 nm and an emission wavelength of 588 nm. Data were analyzed using the microplate reader software Softmax Pro (Molecular Devices Cooperation, Sunnyvale, CA, USA). From the sigmoidal inhibition curves, the IC50 values were calculated. Podophyllotoxin was the positive control.
# L6 cells = assay: as above; type: cell-based, rat; conditions: rat
# Procedure: as §1
# [5] = tested on: T. brucei bloodstream forms; parameters: method as in PMID 10865458; conditions: cited from earlier work
# [6] = K1 strain (chloroquine- and pyrimethamine-resistant), erythrocytic stages, means of two determinations ± deviation, read-out: IC50 Plasmodium falciparum
# [7] = rat skeletal myoblasts, 72 h, means of two determinations ± deviation, read-out: IC50 Cytotoxicity L6 cells
# [8] = Trypanosoma brucei, 72 h, STIB 900 blood stream forms, 72 h; means of two independent determinations ± deviation from the mean; read-out: IC50 Trypanosoma brucei rhodesiense
# [9] = L6 cells (rat skeletal myoblasts), rat skeletal myoblasts, 72 h, means of two determinations ± deviation, read-out: IC50 Cytotoxicity L6 cells
Structure (SMILES),IC50 [2],IC50 [3],IC50 (P. falciparum K1 strain; [6]),"IC50 [1, 8]","IC50 at 72 h [4, 9]",other results
"Nc1nc(N)nc(Nc2ccc([As]3SCC(CO)S3)cc2)n1 (stereo not drawn) [melarsoprol, reference compound]",–,–,–,–,–,"IC50 ([1]; Trypanosoma brucei, 72 h, read-out: IC50 Trypanosoma brucei rhodesiense): 0.003 µg/mL"
"N=C(N)c1ccc(OCCCCCOc2ccc(C(=N)N)cc2)cc1 [Pentamidine, reference compound]",–,–,–,–,–,Cured/Infected (T. brucei brucei STIB795): 4/4; Mean Survival (T. brucei brucei STIB795): >30 days; Mean Survival (T. brucei brucei STIB795; listed as pentamidine): over 30 days
CC1=CCC(C(C)C)=CC1 [γ-Terpinene],> 90 µg/mL,> 90 µg/mL,> 20 µg/mL,–,–,"IC50 ([1]; Trypanosoma brucei; STIB 900 blood stream forms, 72 h; means of two independent determinations ± deviation from the mean; read-out: IC50 Trypanosoma brucei rhodesiense): 32.9 ± 26 µg/mL; IC50 [4, 7]: > 90 µg/mL"
CC1=CC(=O)C(C(C)C)=CC1=O [Thymoquinone],18.2 ± 4.3 µg/mL,1.7 ± 0.16 µg/mL,2.6 ± 0.16 µg/mL,0.11 ± 0.02 µg/mL,20.5 ± 8.1 µg/mL,fold higher cytotoxicity on L6 cells than thymol (L6 cells): 2.5 fold
Cc1ccc(C(C)C)cc1 [p-Cymene],> 90 µg/mL,> 90 µg/mL,> 20 µg/mL,45 ± 27 µg/mL,> 90 µg/mL,–
COc1cc(C(C)C)ccc1C [Carvacrol Methyl Ether],> 90 µg/mL,17.5 ± 1.7 µg/mL,> 20 µg/mL,17 ± 22 µg/mL,–,IC50 at 72 h ([4]; rat): > 90 µg/mL
C=CC(=C)CCC=C(C)C [Myrcene],> 90 µg/mL,48.2 ± 12.7 µg/mL,> 20 µg/mL,22 ± 14.8 µg/mL,> 90 µg/mL,–
C=C[C@](C)(O)CCC=C(C)C [L-Linalool],> 90 µg/mL,86.3 ± 2.8 µg/mL,> 20 µg/mL,3.6 ± 2.5 µg/mL,–,IC50 at 72 h ([4]; rat): > 90 µg/mL
"CCCCCCCCCCCCCCCCOP(=O)([O-])OCC[N+](C)(C)C [miltefosine, reference compound]",–,0.2 µg/mL,–,–,–,–
"CCN(CC)CCCC(C)Nc1ccnc2cc(Cl)ccc12 (stereo not drawn) [chloroquine, reference compound]",–,–,–,–,–,"IC50 (P. falciparum K1 strain; K1, read-out: IC50 Plasmodium falciparum): 0.056 µg/mL"
CC1(C)C2CCC1(C)C(O)C2 (stereo not drawn) [Borneol],> 90 µg/mL,52.1 ± 16.6 µg/mL,> 20 µg/mL,24.3 ± 11.8 µg/mL,> 90 µg/mL,–
CC1=CC[C@@H](C(C)(C)O)CC1 [α-Terpineol],61 ± 2.1 µg/mL,75.9 ± 4.7 µg/mL,> 20 µg/mL,0.56 ± 0.4 µg/mL,–,"IC50 [4, 7]: 32.3 ± 0.1 µg/mL"
CC1=CCC(O)(C(C)C)CC1 (stereo not drawn) [Terpinen-4-ol],46.8 ± 7.4 µg/mL,68.7 ± 14.2 µg/mL,> 20 µg/mL,0.66 ± 0.4 µg/mL,43.3 ± 16.5 µg/mL,ED50 T. brucei bloodstream forms [5]: 0.02 µg/mL; selectivity to the parasite than to the human cell line [5]: 1000 fold
"O=C(Cn1ccnc1[N+](=O)[O-])NCc1ccccc1 [benznidazole, reference compound]",0.44 µg/mL,–,–,–,–,–
C=C1CC/C=C(\C)CC[C@@H]2[C@@H]1CC2(C)C [β-Caryophyllene],50.1 ± 12.5 µg/mL,52.4 ± 17.4 µg/mL,12.8 µg/mL,28.9 ± 11.8 µg/mL,62.2 ± 7 µg/mL,–
"COc1cc([C@@H]2c3cc4c(cc3[C@H](O)[C@H]3COC(=O)[C@H]23)OCO4)cc(OC)c1OC [phodophyllotoxin, reference compound]",–,–,–,–,–,"IC50 at 72 h [4, 7]: 0.004 µg/mL"
COc1cc(C)ccc1C(C)C [Thymol Methyl Ether],> 90 µg/mL,86 ± 1.9 µg/mL,> 20 µg/mL,4.1 ± 1.97 µg/mL,–,IC50 at 72 h ([4]; rat): > 90 µg/mL
